Results reported in PubChem BioAssay AID2060501 (Molecular Pharmacology Branch, DTP, NCI, 2025).

System: 282377-053-R-J1-PDC complex spheroids, viability
Test: Anticancer human tumor 282377-053-R-J1-PDC patient-derived colon adenocarcinoma cell line growth inhibition [GQUAD]
Settings: for IC50: curve of first compound; for viability, T/C: stronger effect = lower value
Method in brief: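 Multi-cell-type spheroids of tumor cells with HUVEC and mesenchymal stem cells, treated with drug combinations. Concentrations descend in half-log steps from near clinical Cmax, or from 10 microM where Cmax is unknown; viability read-out.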

[1] = second compound 0.0316 µM, first compound 0.0316 µM
[2] = second compound 0.0316 µM, first compound 0.1 µM
[3] = second compound 0.0316 µM, first compound 0.316 µM
[4] = second compound 0.0316 µM, first compound 1 µM
[5] = second compound 0.0316 µM, first compound 3.16 µM
[6] = second compound 0.0316 µM, first compound 10 µM
[7] = second compound 0.1 µM, first compound 0.0316 µM
[8] = second compound 0.1 µM, first compound 0.1 µM
[9] = second compound 0.1 µM, first compound 0.316 µM
[10] = second compound 0.1 µM, first compound 1 µM
[11] = second compound 0.1 µM, first compound 3.16 µM
[12] = second compound 0.1 µM, first compound 10 µM
[13] = second compound 0.316 µM, first compound 0.0316 µM
[14] = second compound 0.316 µM, first compound 0.1 µM
[15] = second compound 0.316 µM, first compound 0.316 µM
[16] = second compound 0.316 µM, first compound 1 µM
[17] = second compound 0.316 µM, first compound 3.16 µM
[18] = second compound 0.316 µM, first compound 10 µM
[19] = second compound 1 µM, first compound 0.0316 µM
[20] = second compound 1 µM, first compound 0.1 µM
[21] = second compound 1 µM, first compound 0.316 µM
[22] = second compound 1 µM, first compound 1 µM
[23] = second compound 1 µM, first compound 3.16 µM
[24] = second compound 1 µM, first compound 10 µM
[25] = second compound 3.16 µM, first compound 0.0316 µM
[26] = second compound 3.16 µM, first compound 0.1 µM
[27] = second compound 3.16 µM, first compound 0.316 µM
[28] = second compound 3.16 µM, first compound 1 µM
[29] = second compound 3.16 µM, first compound 3.16 µM
[30] = second compound 3.16 µM, first compound 10 µM
[31] = second compound 10 µM, first compound 0.0316 µM
[32] = second compound 10 µM, first compound 0.1 µM
[33] = second compound 10 µM, first compound 0.316 µM
[34] = second compound 10 µM, first compound 1 µM
[35] = second compound 10 µM, first compound 3.16 µM
[36] = second compound 10 µM, first compound 10 µM
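Note: spheroids exposed to compounds for 7 days before readout.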
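Throughout, for viability, T/C: percent of vehicle DMSO control viability with 100% = untreated-like growth.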

## C=CC(=O)N1CCN(c2nc(=O)n(-c3c(C)ccnc3C(C)C)c3nc(-c4c(O)cccc4F)c(F)cc23)C(C)C1 (stereo unspecified) + Cc1cnc(CNC(=O)c2c(=O)c3ccc(N4CCCN(C)CC4)nc3n3c2sc2ccccc23)cn1
Second compound 0.0316 µM
  IC50: > 10 µM
Second compound 0.1 µM
  IC50: > 10 µM
Second compound 0.316 µM
  IC50: > 10 µM
Second compound 1 µM
  IC50: > 10 µM
Second compound 3.16 µM
  IC50: > 10 µM
Second compound 10 µM
  IC50: 3.74 µM
[1]
  viability, T/C: 129%
[2]
  viability, T/C: 116%
[3]
  viability, T/C: 115%
[4]
  viability, T/C: 116%
[5]
  viability, T/C: 103%
[6]
  viability, T/C: 100%
[7]
  viability, T/C: 119%
[8]
  viability, T/C: 91.7%
[9]
  viability, T/C: 115%
[10]
  viability, T/C: 122%
[11]
  viability, T/C: 110%
[12]
  viability, T/C: 94.1%
[13]
  viability, T/C: 89.8%
[14]
  viability, T/C: 98.9%
[15]
  viability, T/C: 102%
[16]
  viability, T/C: 98.3%
[17]
  viability, T/C: 103%
[18]
  viability, T/C: 90.8%
[19]
  viability, T/C: 77.2%
[20]
  viability, T/C: 64.2%
[21]
  viability, T/C: 74.7%
[22]
  viability, T/C: 80.4%
[23]
  viability, T/C: 76%
[24]
  viability, T/C: 57.4%
[25]
  viability, T/C: 60.2%
[26]
  viability, T/C: 51%
[27]
  viability, T/C: 63.2%
[28]
  viability, T/C: 53.6%
[29]
  viability, T/C: 61.9%
[30]
  viability, T/C: 53.6%
[31]
  viability, T/C: 52.2%
[32]
  viability, T/C: 40.8%
[33]
  viability, T/C: 58.4%
[34]
  viability, T/C: 56.6%
[35]
  viability, T/C: 56.9%
[36]
  viability, T/C: 33%

## CC(C)n1c(=O)n(C)c2cnc3cc(F)c(-c4ccc(OCCCN5CCCCC5)nc4)cc3c21 + Cc1cnc(CNC(=O)c2c(=O)c3ccc(N4CCCN(C)CC4)nc3n3c2sc2ccccc23)cn1
Second compound 0.0316 µM
  IC50: > 10 µM
Second compound 0.1 µM
  IC50: > 10 µM
Second compound 0.316 µM
  IC50: > 10 µM
Second compound 1 µM
  IC50: < 0.0316 µM
Second compound 3.16 µM
  IC50: < 0.0316 µM
Second compound 10 µM
  IC50: < 0.0316 µM
[1]
  viability, T/C: 101%
[2]
  viability, T/C: 76.5%
[3]
  viability, T/C: 102%
[4]
  viability, T/C: 76.5%
[5]
  viability, T/C: 94%
[6]
  viability, T/C: 86.5%
[7]
  viability, T/C: 84.7%
[8]
  viability, T/C: 80.2%
[9]
  viability, T/C: 81.3%
[10]
  viability, T/C: 90.2%
[11]
  viability, T/C: 83.7%
[12]
  viability, T/C: 72.6%
[13]
  viability, T/C: 69.2%
[14]
  viability, T/C: 61.9%
[15]
  viability, T/C: 70.9%
[16]
  viability, T/C: 76.2%
[17]
  viability, T/C: 78.5%
[18]
  viability, T/C: 64.2%
[19]
  viability, T/C: 47.4%
[20]
  viability, T/C: 48.3%
[21]
  viability, T/C: 49.9%
[22]
  viability, T/C: 46.6%
[23]
  viability, T/C: 56.8%
[24]
  viability, T/C: 67.7%
[25]
  viability, T/C: 48.9%
[26]
  viability, T/C: 45.8%
[27]
  viability, T/C: 51.6%
[28]
  viability, T/C: 43.7%
[29]
  viability, T/C: 53.5%
[30]
  viability, T/C: 45.9%
[31]
  viability, T/C: 44.6%
[32]
  viability, T/C: 33.5%
[33]
  viability, T/C: 39.9%
[34]
  viability, T/C: 45%
[35]
  viability, T/C: 40.6%
[36]
  viability, T/C: 23.5%

## CC1COCCN1c1cc(C2(S(C)(=N)=O)CC2)nc(-c2ccnc3[nH]ccc23)n1 (stereo unspecified) + Cc1cnc(CNC(=O)c2c(=O)c3ccc(N4CCCN(C)CC4)nc3n3c2sc2ccccc23)cn1
Second compound 0.0316 µM
  IC50: > 10 µM
Second compound 0.1 µM
  IC50: 4.51 µM
Second compound 0.316 µM
  IC50: 5.63 µM
Second compound 1 µM
  IC50: 3.78 µM
Second compound 3.16 µM
  IC50: 3.52 µM
Second compound 10 µM
  IC50: < 0.0316 µM
[1]
  viability, T/C: 94.2%
[2]
  viability, T/C: 78.7%
[3]
  viability, T/C: 96.2%
[4]
  viability, T/C: 89.1%
[5]
  viability, T/C: 61.1%
[6]
  viability, T/C: 50.6%
[7]
  viability, T/C: 99.5%
[8]
  viability, T/C: 115%
[9]
  viability, T/C: 94.4%
[10]
  viability, T/C: 76.2%
[11]
  viability, T/C: 59.1%
[12]
  viability, T/C: 35.4%
[13]
  viability, T/C: 83.2%
[14]
  viability, T/C: 92.2%
[15]
  viability, T/C: 97.1%
[16]
  viability, T/C: 81%
[17]
  viability, T/C: 64.3%
[18]
  viability, T/C: 36.3%
[19]
  viability, T/C: 68.4%
[20]
  viability, T/C: 79.2%
[21]
  viability, T/C: 70.9%
[22]
  viability, T/C: 61%
[23]
  viability, T/C: 55.6%
[24]
  viability, T/C: 30%
[25]
  viability, T/C: 49.1%
[26]
  viability, T/C: 56.1%
[27]
  viability, T/C: 68.5%
[28]
  viability, T/C: 50.1%
[29]
  viability, T/C: 52.2%
[30]
  viability, T/C: 34.6%
[31]
  viability, T/C: 42.1%
[32]
  viability, T/C: 52%
[33]
  viability, T/C: 54.5%
[34]
  viability, T/C: 43.9%
[35]
  viability, T/C: 43.1%
[36]
  viability, T/C: 29.1%
